Assay results: patent publication US12459951B2, “Compounds that interact with RAS superfamily proteins for treatment of cancers, inflammatory diseases, rasopathies, and fibrotic disease” (SHY Therapeutics, LLC, priority 2022, dated 2025)
Like-named read-outs stand apart in the source and are kept apart here.

Experiments:
[1] = test system: MiaPaca-2 (expressing KRAS G12C mutant); assay: Proliferation Assay (Cell Viability Assay); format: cell-based; conditions: Homo sapiens, MIA PaCa-2
Description: Protocol for Proliferation Assay
This assay is referred to as the “Proliferation Assay” or “Cell Viability Assay” throughout this application.
Cell lines: Human tumor-derived cell lines were purchased from American Type Culture Collection. Human tumor-derived pancreatic cancer cell line MiaPaca-2 (expressing KRAS G12C mutant) and Panc-1 (expressing KRas G12D mutant), and Human non-small cell lung cancer (NSCLC) cell line A549 (expressing KRas G12S mutant) were grown in complete DMEM-High Glucose medium. Human colon cancer cell line SW-620 (expressing KRas G12V mutant) was grown in RPMI 1640 medium. All cell lines were supplemented with penicillin (100 U/mL), streptomycin (100 μg/mL), and 10% heat-inactivated FBS at 37° C. in a humidified incubator with 5% CO2.
(§1) Method: Cells were plated at 2000 to 5000 cells/well density in 96-wells plate and cultured overnight. Small molecules to be tested were added to the cells in the final concentration of 10 μM in the presence of 0.3% DMSO and 10% FBS and incubated for 2-4 days at 37° C. in a humidified incubator with 5% CO2. For IC50 value determination, serial dilutions of compounds were added to cells under the same conditions.
Assay: At the end of the incubation period, cell viability was determined using the CellTiter 96® Aqueous One Solution Cell Proliferation Assay according to manufacturer specifications (Promega, Madison, WI). The percentage of small molecules inhibition of cellular proliferation was calculated from raw data.
Cell lines: these Human tumor-derived cell lines were purchased from American Type Culture Collection. Human tumor-derived pancreatic cancer cell line MiaPaca-2 (expressing KRAS G12C mutant) and Panc-1 (expressing KRas G12D mutant), and Human non-small cell lung cancer (NSCLC) cell line A549 (expressing KRas G12S mutant), and Human melanoma cell line A375 (wild type Kras) were grown in complete DMEM-High Glucose medium. Human tumor-derived pancreatic cancer cell lines SU86.86 (expressing KRas G12D mutant), BxPC3 (expressing wild type K-Ras), and Human non-small cell lung cancer (NSCLC) cell lines NCI-H441 (expressing KRas G12S mutant), NCI-H1975 (expressing wild type KRas), NCI-H358 (expressing KRas G12C mutant), NCI-H1299 (expressing NRas Q61H mutant), and Human colon cancer cell line SW-620 (expressing KRas G12V mutant), Human triple negative breast cancer cell line HCC-1806 (expressing wild type KRas), and Human tumor-derived multiple myeloma cell line MM.1R (expressing wild type KRAS), were grown in RPMI 1640 medium. Human tumor-derived breast cancer cell line BT-549 (expressing wild type KRAS) was grown in RPMI 1640 medium in the presence of 11.8U insulin. Human tumor-derived pancreatic cancer cell line HPAF-II (expressing KRas G12D mutant), Human triple negative breast cancer cell line BT-20 (expressing wild type KRas), and Human colon cancer cell line LS123 (expressing KRas G12S mutant), were grown in EMEM medium. Human tumor-derived pancreatic cancer cell line CF-PAC1 (expressing KRas G12V mutant) was frown in IMDM medium, and Human colon cancer cell line HT29 (expressing wild type KRas) was grown in McCoy's 5A medium. The colon cancer cell line GP2d (expressing KRas G12D mutant) was purchased from MilliporeSigma and grown in DMEM-High Glucose medium. All cell lines were supplemented with penicillin (100 U/mL), streptomycin (100 μg/mL), and 10% heat-inactivated FBS at 37° C. in a humidified incubator with 5% CO2.
as §1, with “that were” for “to be”, “FBS,” for “FBS”

[2] = test system: Smad2/Smad3 phosphorylation; assay: Phospho-Smad2/3 Inhibition Assay (western blot), Panc-1; format: cell-based, human; conditions: at 10 μM, Panc-1 pancreatic cancer cell line; starred symbols = activation
Description: Protocol for Phospho-Smad2/3 Inhibition Assay
This assay is referred to as the “Phospho-Smad2/3 Inhibition Assay” throughout this application.
Cell lines: Human tumor-derived pancreatic cancer cell line Panc-1 (expressing KRas G12D mutant) and mouse muscle myoblast C2C12 were purchased from American Type Culture Collection and grown in complete DMEM-High Glucose, supplemented with penicillin (100 U/mL), streptomycin (100 μg/mL), and 10% heat-inactivated FBS at 37° C. in a humidified incubator with 5% CO2.
Method: Cells were plated at 350000 cells/well density in a 12-well plate, allowed 3 hours to adhere to the plate, then starved in the appropriate medium in the presence of 0.5% FBS overnight. The small molecules to be tested were added to the cells in the final concentration of 10 μM in the presence of 0.3% DMSO for 3 hours incubation at 37° C. For IC50 value determination, serial dilutions of compounds were added to cells under the same conditions. Next, Panc-1 cells were stimulated with 10 ng/ml TGF-b1 for 1 hour, and C2C12 cells were stimulated with 10 ng/ml TGF-b1 for 20 minutes (recombinant human TGF-b1, R&D Systems). After stimulation cells were lysed with lysis buffer containing 1% Triton X-100, EDTA, and Halt™ Protease & Phosphatase Inhibitor Cocktail (Thermo Scientific). Protein concentration was assessed by BCA protein assay (Thermo Scientific). Phosphorylation level of Smad2/Smad3 was determined by western blot.
Western blot protocol: Equal amounts of protein (15-50 μg) were separated by SDS-PAGE and transferred to nitrocellulose membranes (Invitrogen by Thermo Fisher Scientific). The membrane was stained with Ponceau S Stain (Boston BioProducts) to verify uniform protein loading. Membranes were blocked with 10% milk and phosphorylation levels of Smad2/Smad3 were assessed by incubating overnight at 4° C. with the following antibodies: Phospho-Smad2 (Ser465/467) and Phosph-Smad3 (Ser423/425), both from Cell Signaling Technology. Then the membranes were incubated with HRP-conjugated secondary antibody (Jackson Immunoresearch, West Grove, PA). Bands were incubated in Amersham ECL Prime Western Blotting Detection Reagent (GE Healthcare) and visualized using the ChemiDoc MP imaging system (Bio-Rad).

[3] = read-out: Proliferation in MiaPaca-2: IC50

Row | SMILES | IC50 [1, 3] [nM] | % inh of Smad2/3 phosphorylation in Panc-1 [2] | IC50 ([1]; MiaPaca2, pancreatic, KRas G12C, read-out: Proliferation assay IC50) [nM] | IC50 ([1]; Proliferation assay, MiaPaca-2, read-out: MiaPaca-2 IC50 (nM) Pancreatic) [nM]
1 | CO[C@H]1CC[C@@H](Nc2nc(-c3ccccn3)nn3cc(-c4ccn(C(C)C)n4)c(C)c23)C1 (racemic) [Compound 9, rac 6-(1-Isopropyl-1H-pyrazol-3-yl)-N-((1R,3S)-3-methoxycyclopentyl)-5-methyl-2-(pyridin-2-yl)pyrrolo[2,1-f][1,2,4]triazin-4-amine] | > 1000 | 0 (0 = 0% inhibition) | – | –
2 | CO[C@@H]1CC[C@@H](Nc2nc(-c3nccn3C)nn3cc(-c4ccn(C)n4)c(C)c23)C1 (racemic) [Compound 132, rac N-((1R,3R)-3-Methoxycyclopentyl)-5-methyl-2-(1-methyl-1H-imidazol-2-yl)-6-(1-methyl-1H-pyrazol-3-yl)pyrrolo[2,1-f][1,2,4]triazin-4-amine] | > 1000 | A* (A* = 1-25% activation) | – | –
3 | CO[C@H]1CC[C@@H](Nc2nc(-c3nccn3C)nn3cc(-c4ccn(C)n4)c(C)c23)C1 (racemic) [Compound 133, rac N-((1R,3S)-3-Methoxycyclopentyl)-5-methyl-2-(1-methyl-1H-imidazol-2-yl)-6-(1-methyl-1H-pyrazol-3-yl)pyrrolo[2,1-f][1,2,4]triazin-4-amine] | > 1000 | A (A = 1-25% inhibition) | – | –
4 | CO[C@@H]1CC[C@@H](Nc2nc(-c3nccn3C)nn3cc(-c4cccnc4)c(C)c23)C1 (racemic) [Compound 154, rac N-((1R,3R)-3-methoxy-cyclopentyl)-5-methyl-2-(1-methyl-1H-imidazol-2-yl)-6-(pyridin-3-yl)pyrrolo[2,1-f][1,2,4]triazin-4-amine] | > 1000 | C (C = 46-75% inhibition) | – | –
5 | CO[C@H]1CC[C@@H](Nc2nc(-c3nccn3C)nn3cc(-c4cccnc4)c(C)c23)C1 (racemic) [Compound 155, rac N-((1R,3S)-3-methoxy-cyclopentyl)-5-methyl-2-(1-methyl-1H-imidazol-2-yl)-6-(pyridin-3-yl)pyrrolo[2,1-f][1,2,4]triazin-4-amine] | > 1000 | A (A = 1-25% inhibition) | – | –
6 | COc1cc(-c2cn3nc(-c4nccn4C)nc(N[C@@H]4CC[C@@H](OC)C4)c3c2C)ccn1 (racemic) [Compound 163, rac N-((1R,3R)-3-Methoxycyclopentyl)-6-(2-methoxypyridin-4-yl)-5-methyl-2-(1-methyl-1H-imidazol-2-yl)pyrrolo[2,1-f][1,2,4]triazin-4-amine] | > 1000 | B (B = 26-45% inhibition) | – | –
7 | COc1cc(-c2cn3nc(-c4nccn4C)nc(N[C@@H]4CC[C@H](OC)C4)c3c2C)ccn1 (racemic) [Compound 164, rac N-((1R,3S)-3-Methoxycyclopentyl)-6-(2-methoxypyridin-4-yl)-5-methyl-2-(1-methyl-1H-imidazol-2-yl)pyrrolo[2,1-f][1,2,4]triazin-4-amine] | > 1000 | A* (A* = 1-25% activation) | – | –
8 | COc1cc(Nc2nc(-c3nccn3C)nn3cc(-c4ccn(C(C)C)n4)c(C)c23)ncn1 [Compound 6, 6-(1-Isopropyl-1H-pyrazol-3-yl)-N-(6-methoxypyrimidin-4-yl)-5-methyl-2-(1-methyl-1H-imidazol-2-yl)pyrrolo[2,1-f][1,2,4]triazin-4-amine] | 150 to 500 | 0 (0 = 0% inhibition) | < 150 | 10 to 50
9 | Cc1c(-c2ccn(C(C)C)n2)cn2nc(-c3ccccn3)nc(O)c12 [Compound 8, 6-(1-Isopropyl-1H-pyrazol-3-yl)-5-methyl-2-(pyridin-2-yl)pyrrolo[2,1-f][1,2,4]triazin-4-ol] | > 1000 | 0 (0 = 0% inhibition) | – | –
10 | Cc1c(-c2ccn(C(C)C)n2)cn2nc(-c3nccn3C)nc(Nc3nccn3C)c12 [Compound 93, 6-(1-Isopropyl-1H-pyrazol-3-yl)-5-methyl-N,2-bis(1-methyl-1H-imidazol-2-yl)pyrrolo[2,1-f][1,2,4]triazin-4-amine] | 150 to 500 | A (A = 1-25% inhibition) | – | –
11 | COc1cc(Nc2nc(-c3nccn3C)nn3cc(-c4ccccn4)c(C)c23)ncn1 [Compound 94, N-(6-Methoxypyrimidin-4-yl)-5-methyl-2-(1-methyl-1H-imidazol-2-yl)-6-(pyridin-2-yl)pyrrolo[2,1-f][1,2,4]triazin-4-amine] | < 150 | B* (B* = 26-45% activation) | – | –
12 | COc1ccnc(Nc2nc(-c3nccn3C)nn3cc(-c4ccn(C(F)F)n4)c(C)c23)n1 [Compound 95, 6-(1-(Difluoromethyl)-1H-pyrazol-3-yl)-N-(4-methoxypyrimidin-2-yl)-5-methyl-2-(1-methyl-1H-imidazol-2-yl)pyrrolo[2,1-f][1,2,4]triazin-4-amine] | < 150 | C* (C* = 46-75% activation) | – | –
13 | Cc1c(-c2ccn(C(C)C)n2)cn2nc(-c3nccn3C)nc(Nc3nccc(OCCN(C)C)n3)c12 [Compound 96, N-(4-(2-(Dimethylamino)ethoxy)pyrimidin-2-yl)-6-(1-isopropyl-1H-pyrazol-3-yl)-5-methyl-2-(1-methyl-1H-imidazol-2-yl)pyrrolo[2,1-f][1,2,4]triazin-4-amine] | 150 to 500 | D (D = 76-100% inhibition) | – | –
14 | Cc1c(-c2ccn(C(C)C)n2)cn2nc(-c3nccn3C)nc(Nc3cc(OCCO)ncn3)c12 [Compound 97, 2-((6-((6-(1-Isopropyl-1H-pyrazol-3-yl)-5-methyl-2-(1-methyl-1H-imidazol-2-yl)pyrrolo[2,1-f][1,2,4]triazin-4-yl)amino)pyrimidin-4-yl)oxy) ethan-1-ol] | < 150 | D (D = 76-100% inhibition) | – | –
